Measurements taken from patent US7645751B2, “Mandelic acid derivatives and their use as thrombin inhibitors” (AstraZeneca, priority 2000, dated 2010).
Counter-ions that a name gives are not always drawn.

Columns and labels:
[1] = Test G: determination of in vitro stability in liver microsomes (rat); assay type: in vitro ADME; details: 37° C., up to 60 min, NADH/NADPH
Procedure: (§1) Liver microsomes are prepared from Sprague-Dawley rats and human liver samples according to internal SOPs. The compounds are incubated at 37° C. at a total microsome protein concentration of 3 mg/mL in a 0.05 mol/L TRIS buffer at pH 7.4, in the presence of the cofactors NADH (2.5 mmol/L) and NADPH (0.8 mmol/L). The initial concentration of compound is 5 or 10 μmol/L. Samples are taken for analysis up to 60 minutes after the start of the incubation. The enzymatic activity in the collected sample is immediately stopped by adding 20% […] at a volume corresponding to 3.3% of the total sample volume. The concentration of compound remaining (FINAL CONC) in the 60 min. sample is determined by means of LCMS using a sample collected at zero time as reference (START CONC). The % of degraded thrombin inhibitor is calculated as: […]

[2] = Test G: determination of in vitro stability in liver microsomes (human); assay type: in vitro ADME; details: 37° C., up to 60 min, NADH/NADPH
Procedure: as §1

melting point | Compound | conversion to the corresponding active inhibitor (free amidine) in liver microsomes from rats [1] | conversion to the corresponding active inhibitor (free amidine) in liver microsomes from humans [2]
 | CO/N=C(\N)c1cnc(CNC(=O)[C@@H]2CCN2C(=O)[C@H](O)c2cc(Cl)cc(OC(F)F)c2)nc1 [Example 37, Ph(3-Cl)(5-OCHF2)—(R)CH(OH)C(O)-Aze-NH—CH2-((5-methoxyamidino)-2-pyrimidinyl)] | converted to the corresponding active inhibitor (free amidine) | converted to the corresponding active inhibitor (free amidine)
 | CC(C)ON=C(N)c1ccc(CNC(=O)[C@@H]2CCN2C(=O)[C@H](O)c2cc(Cl)cc(OC(F)F)c2)cc1 [Example 45, Ph(3-Cl)(5-OCHF2)—(R)CH(OH)C(O)-Aze-Pab(OiPr)] | converted to the corresponding active inhibitor (free amidine) | converted to the corresponding active inhibitor (free amidine)
 | CON=C(N)c1ccc(CNC(=O)[C@@H]2CCN2C(=O)[C@H](O)c2cc(Cl)cc(OCF)c2)cc1 [Example 20, Ph(3-Cl)(5-OCH2F)—(R)CH(OH)C(O)-Aze-Pab(OMe)] | converted to the corresponding active inhibitor (free amidine) | converted to the corresponding active inhibitor (free amidine)
86 to 87 °C | N=C(N)c1cnc(CNC(=O)[C@@H]2CCN2C(=O)[C@H](O)c2cc(Cl)cc(OC(F)F)c2)nc1 (as salt: TFA) [Example 36, Ph(3-Cl)(5-OCHF2)—(R)CH(OH)C(O)-Aze-NH—CH2-((5-amidino)-2-pyrimidinyl)] |  | 
 | CON=C(N)c1ccc(CNC(=O)[C@@H]2CCN2C(=O)[C@H](O)c2cc(Cl)cc(OCC(F)F)c2)cc1 [Example 18, Ph(3-Cl)(5-OCH2CHF2)—(R)CH(OH)C(O)-Aze-Pab(OMe)] | converted to the corresponding active inhibitor (free amidine) | converted to the corresponding active inhibitor (free amidine)
 | Ph(3-Br)(5-OCHF2)—(R)CH(OH)C(O)-Aze-Pab(OMe) [Example 29] | converted to the corresponding active inhibitor (free amidine) | converted to the corresponding active inhibitor (free amidine)
 | Ph(3-Cl)(5-OCHF2)—(R)CH(OH)C(O)-Aze-Pab(OcBu) [Example 1] | converted to the corresponding active inhibitor (free amidine) | converted to the corresponding active inhibitor (free amidine)
 | CON=C(N)c1ccc(CNC(=O)[C@@H]2CCN2C(=O)[C@H](O)c2cc(Cl)cc(OCCF)c2)cc1 [Example 22, Ph(3-Cl)(5-OCH2CH2F)—(R)CH(OH)C(O)-Aze-Pab(OMe)] | converted to the corresponding active inhibitor (free amidine) | converted to the corresponding active inhibitor (free amidine)
 | CON=C(N)c1ccc(CNC(=O)[C@@H]2CCN2C(=O)[C@H](O)c2cc(F)cc(OC(F)F)c2)cc1 [Example 26, Ph(3-F)(5-OCHF2)—(R)CH(OH)C(O)-Aze-Pab(OMe)] | converted to the corresponding active inhibitor (free amidine) | converted to the corresponding active inhibitor (free amidine)
 | CON=C(N)c1ccc(CNC(=O)[C@@H]2CCN2C(=O)[C@H](CO)c2cc(Cl)cc(OC(F)(F)F)c2)cc1 [Example 11, Ph(3-Cl)(5-OCF3)—(S)CH(CH2OH)C(O)-Aze-Pab(OMe)] | converted to the corresponding active inhibitor (free amidine) | converted to the corresponding active inhibitor (free amidine)
 | CO/N=C(\N)c1cc(F)c(CNC(=O)[C@@H]2CCN2C(=O)[C@H](O)c2cc(Cl)cc(OC(F)F)c2)c(F)c1 [Example 40, Ph(3-Cl)(5-OCHF2)—(R)CH(OH)C(O)-Aze-Pab(2,6-diF)(OMe)] | converted to the corresponding active inhibitor (free amidine) | converted to the corresponding active inhibitor (free amidine)
 | CON=C(N)c1ccc(CNC(=O)[C@@H]2CCN2C(=O)[C@H](O)c2cc(Cl)cc(OC(F)F)c2)cc1 [Example 12, Ph(3-Cl)(5-OCHF2)—(R)CH(OH)C(O)-Aze-Pab(OMe)] | converted to the corresponding active inhibitor (free amidine) | converted to the corresponding active inhibitor (free amidine)
 | CCON=C(N)c1ccc(CNC(=O)[C@@H]2CCN2C(=O)[C@H](O)c2cc(Cl)cc(OC(F)F)c2)cc1 [Example 43, Ph(3-Cl)(5-OCHF2)—(R)CH(OH)C(O)-Aze-Pab(OEt)] | converted to the corresponding active inhibitor (free amidine) | converted to the corresponding active inhibitor (free amidine)
 | NC(=NO)c1ccc(CNC(=O)[C@@H]2CCN2C(=O)[C@H](O)c2cc(Cl)cc(OC(F)F)c2)cc1 [Example 2, Ph(3-Cl)(5-OCHF2)—(R)CH(OH)C(O)-Aze-Pab(OH)] | converted to the corresponding active inhibitor (free amidine) | converted to the corresponding active inhibitor (free amidine)
 | CON=C(N)c1ccc(CNC(=O)[C@@H]2CCN2C(=O)[C@H](O)c2cc(Cl)cc(OC(F)(F)F)c2)cc1 [Example 7, Ph(3-Cl)(5-OCF3)—(R)CH(OH)C(O)-Aze-Pab(OMe)] | converted to the corresponding active inhibitor (free amidine) | converted to the corresponding active inhibitor (free amidine)
 | CON=C(N)c1ccc(CNC(=O)[C@@H]2CCN2C(=O)[C@H](O)c2cc(Cl)cc(OCC(F)(F)F)c2)cc1 [Example 16, Ph(3-Cl)(5-OCH2CF3)—(R)CH(OH)C(O)-Aze-Pab(OMe)] | converted to the corresponding active inhibitor (free amidine) | converted to the corresponding active inhibitor (free amidine)
 | CON=C(N)c1ccc(CNC(=O)[C@@H]2CCCN2C(=O)[C@H](O)c2cc(Cl)cc(OC(F)F)c2)cc1 [Example 33, Ph(3-Cl)(5-OCHF2)—(R)CH(OH)—C(O)-Pro-Pab(OMe)] | converted to the corresponding active inhibitor (free amidine) | converted to the corresponding active inhibitor (free amidine)
 | CON=C(N)c1ccc(CNC(=O)[C@@H]2CCN2C(=O)[C@H](O)c2cc(Cl)cc(OC(CF)CF)c2)cc1 [Example 24, Ph(3-Cl)(5-OCH(CH2F)2)—(R)CH(OH)C(O)-Aze-Pab(OMe)] | converted to the corresponding active inhibitor (free amidine) | converted to the corresponding active inhibitor (free amidine)
